Measured values as given in US20240415914A1, “Water Dispersible Cannabinoid Compositions” (priority 2021, published 2024).

Assay: Stability of cannabinoid and Vitamin E components of Beverage 1 (AB White) stored at 8° C. and 21-25° C., LCMSMS over 570 days
Type: physicochemical
Details: for Stability in AB White, 8° C. (content by LCMSMS): beverage stored at 8° C.; for Stability in AB White, 21-25° C. (content by LCMSMS): beverage stored at 21-25° C.
Procedure: The LCMSMS was calibrated for 0-1000 ng/ml cannabinoids with the same resin material used in the preparation of the concentrates. At each time period, 100 ml of beverage was diluted with 10 ml of methanol and injected into the LCMSMS for analysis.

CCCc1cc(O)c2c(c1)OC(C)(C)[C@@H]1CCC(C)=C[C@@H]21 [THCV, delta-9-tetrahydrocannabivarin]
3.32 µg/mL: Stability in AB White, 8° C. (content by LCMSMS) (day 540) | Stability in AB White, 21-25° C. (content by LCMSMS) (day 510)
3.57 µg/mL: Stability in AB White, 8° C. (content by LCMSMS) (day 16) | Stability in AB White, 21-25° C. (content by LCMSMS) (day 23)
3.60 µg/mL: Stability in AB White, 8° C. (content by LCMSMS) (day 2) | Stability in AB White, 8° C. (content by LCMSMS) (day 8) | Stability in AB White, 8° C. (content by LCMSMS) (day 22) | Stability in AB White, 21-25° C. (content by LCMSMS) (day 16)
3.58 µg/mL: Stability in AB White, 8° C. (content by LCMSMS) (day 5) | Stability in AB White, 8° C. (content by LCMSMS) (day 10) | Stability in AB White, 8° C. (content by LCMSMS) (day 60) | Stability in AB White, 21-25° C. (content by LCMSMS) (day 2)
3.49 µg/mL: Stability in AB White, 8° C. (content by LCMSMS) (day 420) | Stability in AB White, 21-25° C. (content by LCMSMS) (day 360)
3.59 µg/mL: Stability in AB White, 8° C. (content by LCMSMS) (day 11) | Stability in AB White, 8° C. (content by LCMSMS) (day 18) | Stability in AB White, 8° C. (content by LCMSMS) (day 30) | Stability in AB White, 8° C. (content by LCMSMS) (day 180) | Stability in AB White, 21-25° C. (content by LCMSMS) (day 11) | Stability in AB White, 21-25° C. (content by LCMSMS) (day 19)
3.52 µg/mL: Stability in AB White, 8° C. (content by LCMSMS) (day 29) | Stability in AB White, 8° C. (content by LCMSMS) (day 330) | Stability in AB White, 21-25° C. (content by LCMSMS) (day 22) | Stability in AB White, 21-25° C. (content by LCMSMS) (day 180) | Stability in AB White, 21-25° C. (content by LCMSMS) (day 300)
3.41 µg/mL: Stability in AB White, 21-25° C. (content by LCMSMS) (day 240)
3.63 µg/mL: Stability in AB White, 8° C. (content by LCMSMS) (day 26) | Stability in AB White, 21-25° C. (content by LCMSMS) (day 8) | Stability in AB White, 21-25° C. (content by LCMSMS) (day 24)
3.40 µg/mL: Stability in AB White, 21-25° C. (content by LCMSMS) (day 210) | Stability in AB White, 21-25° C. (content by LCMSMS) (day 390)
3.34 µg/mL: Stability in AB White, 8° C. (content by LCMSMS) (day 510)
3.55 µg/mL: Stability in AB White, 8° C. (content by LCMSMS) (day 3) | Stability in AB White, 8° C. (content by LCMSMS) (day 23) | Stability in AB White, 8° C. (content by LCMSMS) (day 150) | Stability in AB White, 21-25° C. (content by LCMSMS) (day 5) | Stability in AB White, 21-25° C. (content by LCMSMS) (day 9) | Stability in AB White, 21-25° C. (content by LCMSMS) (day 10) | Stability in AB White, 21-25° C. (content by LCMSMS) (day 26) | Stability in AB White, 21-25° C. (content by LCMSMS) (day 330)
3.44 µg/mL: Stability in AB White, 8° C. (content by LCMSMS) (day 210) | Stability in AB White, 8° C. (content by LCMSMS) (day 450) | Stability in AB White, 8° C. (content by LCMSMS) (day 480) | Stability in AB White, 21-25° C. (content by LCMSMS) (day 540)
3.46 µg/mL: Stability in AB White, 8° C. (content by LCMSMS) (day 300) | Stability in AB White, 21-25° C. (content by LCMSMS) (day 420)
3.50 µg/mL: Stability in AB White, 8° C. (content by LCMSMS) (day 12) | Stability in AB White, 8° C. (content by LCMSMS) (day 360) | Stability in AB White, 21-25° C. (content by LCMSMS) (day 18) | Stability in AB White, 21-25° C. (content by LCMSMS) (day 60)
3.6 µg/mL: Stability in AB White, 8° C. (content by LCMSMS) (day 0) | Stability in AB White, 21-25° C. (content by LCMSMS) (day 0)
3.47 µg/mL: Stability in AB White, 8° C. (content by LCMSMS) (day 270) | Stability in AB White, 8° C. (content by LCMSMS) (day 390) | Stability in AB White, 21-25° C. (content by LCMSMS) (day 12) | Stability in AB White, 21-25° C. (content by LCMSMS) (day 90) | Stability in AB White, 21-25° C. (content by LCMSMS) (day 450)
3.61 µg/mL: Stability in AB White, 8° C. (content by LCMSMS) (day 9) | Stability in AB White, 8° C. (content by LCMSMS) (day 17)
3.56 µg/mL: Stability in AB White, 8° C. (content by LCMSMS) (day 15) | Stability in AB White, 8° C. (content by LCMSMS) (day 24) | Stability in AB White, 8° C. (content by LCMSMS) (day 25) | Stability in AB White, 8° C. (content by LCMSMS) (day 90) | Stability in AB White, 8° C. (content by LCMSMS) (day 120) | Stability in AB White, 8° C. (content by LCMSMS) (day 240) | Stability in AB White, 21-25° C. (content by LCMSMS) (day 270)
3.54 µg/mL: Stability in AB White, 8° C. (content by LCMSMS) (day 1) | Stability in AB White, 21-25° C. (content by LCMSMS) (day 3) | Stability in AB White, 21-25° C. (content by LCMSMS) (day 25) | Stability in AB White, 21-25° C. (content by LCMSMS) (day 150)
3.48 µg/mL: Stability in AB White, 21-25° C. (content by LCMSMS) (day 1) | Stability in AB White, 21-25° C. (content by LCMSMS) (day 15) | Stability in AB White, 21-25° C. (content by LCMSMS) (day 30)
3.30 µg/mL: Stability in AB White, 8° C. (content by LCMSMS) (day 570) | Stability in AB White, 21-25° C. (content by LCMSMS) (day 480) | Stability in AB White, 21-25° C. (content by LCMSMS) (day 570)
3.45 µg/mL: Stability in AB White, 21-25° C. (content by LCMSMS) (day 120)
3.62 µg/mL: Stability in AB White, 21-25° C. (content by LCMSMS) (day 29)
3.51 µg/mL: Stability in AB White, 8° C. (content by LCMSMS) (day 19) | Stability in AB White, 21-25° C. (content by LCMSMS) (day 17)
